“Also recorded” adds a separate entry of the source. Where no end group is shown, it is not given here.
Key:
[1] = measured previously in the literature; cited from earlier work
[2] = tested on: spontaneously hypertensive rat (SHR); assay: Acute antihypertensive response (MAP, HR) to graded intravenous doses in anesthetized SHR; format: in vivo; details: for acute change in MAP and HR: graded intravenous doses (nitroxides 17-270 μmol/kg; SOD 34-540 U/kg); for ED50 (sensitivity) for changes in MAP and HR: intravenous
Description: Experiments were approved by the Georgetown University Animal Care and Use Committee. Male SHR weighing 250-350 g (Taconic, Germantown, N.Y.) were anesthetized with thiobutabarbital (Inactin; Sigma, St. Louis, Mo.) (10 mg/100 g) after halothane (Halocarbon Laboratories, River Edge, N.J.) induction. Rats received 0.9% NaCl at 2 ml/h IV up to the time of receiving drugs to maintain euvolemia. A femoral artery was cannulated with polyethelene (PE)-50 tubing connected to a digital blood pressure analyzer (Micro-Med, Louisville, Ky.). Animals were equilibrated for 45 min. Thereafter, a nitroxide (17 μmol/kg) was infused intravenously over 10 s. The mean arterial pressure (MAP) and heart rate (HR) were recorded over the first 5 min and at 10 and 15 min. This was followed by doses of 54, 72, 174, and 270 μmol/kg under similar conditions. The same protocol was followed with each nitroxide: T, 4-oxo-tempo (OT), 4-amino-tempo (AT), 3-carboxy-peroxyl (3-CTPY) (Aldrich, Milwaukee, Wis.), 3-carbomyl-proxyl (3-CP) (Sigma), and 4-trimethylammonium-2,2,6,6,-tetramethylpiperidine-1-oxyl iodide (CAT-1) (Molecular Probes, Eugene, Oreg.) (FIG. 3). Doses of bovine Cu/Zn SOD (MW 32,500; Oxis Research, Portland, Oreg.) were selected that had equivalent SOD mimetic activity in vitro to the doses of T used for intravenous studies: 34, 110, 140, 260, 350, and 540 U/kg. SOD injection followed a similar protocol to the nitroxides and was compared with vehicle-injected rats. Additional rats received injections of previously boiled SOD as a further control group. Six rats were studied in each group.
The mean±SE changes in MAP and HR were calculated from the individual dose-response relations. The responsiveness was the maximum effect, and the sensitivity was the expected dose for ED50. Data were analyzed by ANOVA with post hoc testing by the Dunnett test, where appropriate. Statistical significance was taken as P<0.05.

[3] = tested on: O2−. generated by xanthine plus xanthine oxidase; assay: Inhibition of O2−. generated by xanthine-xanthine oxidase in vitro (SOD mimetic activity, lucigenin chemiluminescence); format: biochemical; details: for Maximum inhibition, %: O2−. generated by xanthine-xanthine oxidase in vitro, means ± SE, 5 studies; for O2−. generated by a xanthine-xanthine oxidase reaction extinguished: tested in PBS at 10^−4 M
Description: (§1) The SOD activities of Ns were evaluated in vitro for their efficacy in dampening O2^−. generated by xanthine (25 μmol/l) plus xanthine oxidase (9 IU/ml). Their lipid solubility was assessed by shaking the Ns in a 50:50 mixture of PBS (Ambion, Austin, Tex.) and chloroform (CHCl3; EM Science, Gibbstown, N.J.), taking an aliquot of the PBS phase, evaporating the CHCl3phase to dryness, reconstituting it in PBS, and assessing the SOD activities in the two solutions. O2^−. was assessed by chemiluminescence with 5 μM lucigenin (AutoLumatPlus LB 953; EG&G, Berthold, Germany). The reduction in the stable peak value for chemiluminescence for each N, relative to vehicle, defined the SOD mimetic activity.
SOD activity by the nitroxides was assessed in vitro (Table 1). […] The ratio of the activity that partitioned into CHCl3 compared with PBS was examined.

[4] = tested on: cell membranes; details: cited from earlier work
[5] = Lipid solubility: partition of SOD activity between CHCl3 and PBS; format: physicochemical; details: 50:50 PBS and chloroform
Description: as §1

[6] = tested on: mesenteric resistance arteries (MRAs) from EC-SOD −/− and +/+ mice; assay: Contraction of isolated mesenteric resistance arteries (myograph)
Description: FIG. 19: Responses of mouse isolated mesenteric resistance vessles to endothelin-1: comparison of EC-SOD +/+ with −/−. (A) Contraction to endothelin-1, (B) Superoxide production with endothelin-1. Mean±SEM values (n=6-8 per group). Response to endothelin-1 in vessels incubated for 20 min with vehicle, tempol (10^−4 M), PEG-SOD (100 units·ml^−1), and catalase (300 units·ml^−1). Compared to vehicle, ***, p<0.005.
(§2) Reactive oxygen spice (ROS) and endothelin-1 (ET-1) contribute to angiotensin-induced hypertension. We used isolated mesenteric resistance arteries (MRAs) from EC-SOD knockout (−/−) mice (n=10) and EC-SOD wild type (+/+) mice (n=10), as a model to investigate the hypothesis that microvascular ET-1 and superoxide anion (O2.^−) interact to enhance contractility. Tension and O2.^− were quantitated in real time in dihydroethidium (DHE)-loaded MRAs in a myograph equipped with a dual-emission photon detection fluorescence system to measure ethidium (Eth): DHE ratio (E/D) as a direct readout of O2.^− activity. […] PEG-SOD normalized augmented ET-1 contraction (64±4% vs 71±3%; p=ns) and prevent an increase in E/D ratio in MRAs from −/− (0.6±0.5 vs 0.5±0.8, p=ns). In summary, ET-1 generates microvascular O2.^− that enhances its vasoconstrictive action.

[7] = tested on: mesenteric resistance arteries (MRAs) from EC-SOD −/− and +/+ mice; assay: Superoxide as ethidium:DHE ratio (E/D) in dihydroethidium-loaded mesenteric resistance arteries
Excerpt: as §2
A current study contrasts the responses to endothelin-1 (ET-1) in mesenteric resistance vessels from EC-SOD (−/−) and (+/+) mice. […] Parallel studies of vascular superoxide in dihydroethidium-loaded vessels show enhanced conversion to ethidium, indicating enhanced superoxide formation, in vessels from EC-SOD −/−mice. […] We conclude that in the model system of SOD deficiency caused by gene deletion of EC-SOD in the mouse, tempol can correct enhanced contractions and enhanced oxidative stress. It is thereby envisioned as being effective in preventing hypertension and cardiovascular disease.

[8] = cited from earlier work
[9] = tested on: EC-SOD +/+ and −/− mice; assay: MAP of conscious mice by telemetry during subcutaneous Ang II infusion; format: in vivo, mouse; details: for MAP during Ang II infusion: 400 ng/kg per minute subcutaneously, 2 weeks; for Change in MAP with Ang II (mmHg) / MAP on day 12 of Ang II (mmHg): conscious, telemetry
Excerpt: For the first series, mice were instrumented with indwelling radiotelemeters (DSI) connected to a cather in a carotid artery and placed within the abdomen 2 weeks before placement of osmotic minipumps as described previously (Kawada N, et al. 2002 J Am Soc Nephrol 13 :2860-2868). Mice were anesthetized with isoflurane (1.0 to 1.5% in 100% O2) before insertion of telemeters and allowed to recover from the surgery for 12 days before the start of BP recording. Basal recordings of MAP and heart rate (HR) were measured continuously by telemetry for 3 days. Thereafter, mice were anesthetized with isoflurane for insertion of osmotic minipumps (Direct Corp) to deliver Ang II (400 ng^−1 kg^−1 per minute) or vehicle (Veh) subcutaneously for 2 weeks. An additional group received a higher pressor rate of Ang II infusion (1000 ng/kg^−1 min^−1, SC). The mean values for 24-hour periods are reported. For subsequent series, mice were prepared without placement of telemeters and Ang II was infused only at the slow pressor rate.

[10] = tested on: EC-SOD +/+ and −/− mice; assay: MAP of anesthetized mice (direct arterial cannulation) during Ang II infusion; format: in vivo, mouse; details: 400 ng·kg^−1·min^−1
Description: Cannulae were placed in the jugular vein (for infusion of fluids and renal function markers), the femoral artery (for direct measurement of MAP and HR), and the bladder (for the collection of urine). A tracheostomy was performed to permit free, uninterrupted respiration of room air. [^3H]-Inulin was infused at 0.1 μCi^−1 hr^−1 for the measurement of glomerular filtration rate. [^14C]-Para-amino hippurate (PAH) was infused at 0.2 μCi^−1 hr^−1. Blood was collected from the femoral artery and renal vein at the end of the collection period to measure hematocrit and renal PAH extraction. Renal plasma flow (RPF) was calculated from the clearance of PAH factored by its renal extraction. Renal blood flow was calculated from RPF factored by (1-hematocrit). Renal vascular resistance (RVR) was calculated from MAP factored by RBF. In separate groups, plasma was obtained, and the aorta and kidneys were harvested and prepared for further analysis.

[11] = EC-SOD (+/+), 400 ng·kg^−1·min^−1
[12] = EC-SOD (+/+), 1000 ng·kg^−1·min^−1
[13] = EC-SOD (−/−), 400 ng·kg^−1·min^−1
[14] = EC-SOD (−/−), 1000 ng·kg^−1·min^−1

CC1(C)CC(N)CC(C)(C)N1[O] [AT, 4-amino-2,2,6,6-tetramethylpiperidine-1-oxyl]
redox midpoint potential E1/2 [1]: 820 mV | maximal reduction in MAP (comparison between compounds) ([2]; graded intravenous doses): greatest reductions in MAP | acute change in MAP and HR [2]: graded reductions; also recorded: decreased MAP and HR acutely | ED50 (sensitivity) for changes in MAP and HR [2]: highest ED50s | Maximum inhibition, % [3]: 88 ± 2 % | O2−. generated by a xanthine-xanthine oxidase reaction extinguished [3]: 88%

CC1(C)CC([N+](C)(C)C)CC(C)(C)N1[O].[I-] [CAT-1, 4-trimethylammonium-2,2,6,6,-tetramethylpiperidine-1-oxyl iodide]
redox midpoint potential E1/2 [1]: significantly higher values still | maximal reduction in MAP (comparison between compounds) ([2]; graded intravenous doses): significantly more modest reductions | acute change in MAP and HR [2]: graded reductions; also recorded: decreased MAP and HR acutely | ED50 (sensitivity) for changes in MAP and HR [2]: lowest ED50 | permeation of cells [4]: does not permeate cells | Maximum inhibition, % [3]: 42 ± 2 % | O2−. generated by a xanthine-xanthine oxidase reaction extinguished [3]: significantly lower fraction

CC1(C)CC(C(N)=O)C(C)(C)N1[O] (stereo not shown) [Compound 3-CP, 3-carbomoyl-proxyl]
acute change in MAP and HR [2]: ineffective; also recorded: did not; also recorded: does not reduce BP in vivo | Maximum inhibition, % [3]: 82 ± 1 % | O2−. generated by a xanthine-xanthine oxidase reaction extinguished [3]: significantly lower fraction

CC1(C)CC(=O)CC(C)(C)N1[O] [OT, 4-oxo-tempo]
redox midpoint potential E1/2 [1]: 913 mV | maximal reduction in MAP (comparison between compounds) ([2]; graded intravenous doses): significantly more modest reductions | reduction in HR (comparison between compounds) ([2]; graded intravenous doses): smaller | acute change in MAP and HR [2]: graded reductions; also recorded: decreased MAP and HR acutely | ED50 (sensitivity) for changes in MAP and HR [2]: highest ED50s | Maximum inhibition, % [3]: 62 ± 2 % | O2−. generated by a xanthine-xanthine oxidase reaction extinguished [3]: significantly lower fraction | ratio of the activity that partitioned into CHCl3 compared with PBS (partition ratio) [5]: greatest partition ratio

CNC[C@H](O)c1cccc(O)c1 [Phenylephrine]
Phenylephrine-induced contractions, EC-SOD −/− versus +/+ ([6]; MRAs from both groups): similar | E/D ratio with phenylephrine ([7]; MRAs from both groups): did not change

Cu/Zn SOD: bovine Cu/Zn SOD (MW 32,500; Oxis Research)
injected SOD associated with the kidney ([8]; 45 min after injection): ~10% | plasma half time ([8]; after intravenous administration): 6 min | delay of MAP lowering versus vehicle ([2]; graded intravenous doses): 90 to 110 min | acute change in MAP and HR ([2]; listed as SOD): no acute effect; also recorded: did not

angiotensin II (DRVYIHPF; Angiotensin-2; UniProt P01019 25-32, looked up) [Ang II, pressor peptide infused subcutaneously by osmotic minipump]
MAP during Ang II infusion ([9]; EC-SOD +/+): 125±3 mm Hg | MAP during Ang II infusion ([9]; EC-SOD −/−): 124±3 mm Hg | Change in MAP with Ang II (mmHg) [9, 11]: +24.4 ± 3.45 mmHg | MAP on day 12 of Ang II (mmHg) [9, 11]: 134.6 ± 3.3 mmHg | Change in MAP with Ang II (mmHg) [9, 12]: +35.7 ± 6.5 mmHg | MAP on day 12 of Ang II (mmHg) [9, 12]: 149.1 ± 4.3 mmHg | Change in MAP with Ang II (mmHg) [9, 13]: +16.7 ± 4.42 mmHg | MAP on day 12 of Ang II (mmHg) [9, 13]: 132.5 ± 4.1 mmHg | Change in MAP with Ang II (mmHg) [9, 14]: +30.7 ± 3.3 mmHg | MAP on day 12 of Ang II (mmHg) [9, 14]: 149.9 ± 5.4 mmHg | MAP on day 12 of Ang II (mmHg) ([10]; EC-SOD (+/+)): 92.1 ± 3.0 mmHg | MAP on day 12 of Ang II (mmHg) ([10]; EC-SOD (−/−)): 98.4 ± 2.6 mmHg

endothelin-1 (CSCSSLMDKECVYFCHLDIIW; ends and bridges not checked; cysteine pairing not given here; UniProt P05305 53-73, looked up) [ET-1, vasoconstrictor peptide used to contract mesenteric resistance arteries]
ET-1 induced contraction ([6]; MRAs from EC-SOD +/+ mice): 66±5% | ET-1 induced contraction ([6]; MRAs from EC-SOD −/− mice): 100±3% | E/D ratio (ethidium:DHE) with ET-1 ([7]; MRAs from EC-SOD +/+ mice): 0.5±0.8 | E/D ratio (ethidium:DHE) with ET-1 ([7]; MRAs from EC-SOD −/− mice): 3.7±0.5
